Reference: paper PMC11643494, “Structure–Activity Relationship Studies in a Series of 2-Aryloxy-N-(pyrimidin-5-yl)acetamide Inhibitors of SLACK Potassium Channels” (Molecules, 2024)

Key:
Assay type in all cases: cell-based
KV2.1 = target: T1, KV2.1 (Homo sapiens, UniProt Q14721); assay: Tl+-flux assay in HEK-293 cells, KV2.1; details: HEK293; 10 µM test compound; relative to control guangxitoxin 1E; read-out: Percent Inhibition ± SEM, KV2.1
T1 construct: expressed in transfected cells; host or cells: HEK293
T1 sequence (Q14721 whole entry): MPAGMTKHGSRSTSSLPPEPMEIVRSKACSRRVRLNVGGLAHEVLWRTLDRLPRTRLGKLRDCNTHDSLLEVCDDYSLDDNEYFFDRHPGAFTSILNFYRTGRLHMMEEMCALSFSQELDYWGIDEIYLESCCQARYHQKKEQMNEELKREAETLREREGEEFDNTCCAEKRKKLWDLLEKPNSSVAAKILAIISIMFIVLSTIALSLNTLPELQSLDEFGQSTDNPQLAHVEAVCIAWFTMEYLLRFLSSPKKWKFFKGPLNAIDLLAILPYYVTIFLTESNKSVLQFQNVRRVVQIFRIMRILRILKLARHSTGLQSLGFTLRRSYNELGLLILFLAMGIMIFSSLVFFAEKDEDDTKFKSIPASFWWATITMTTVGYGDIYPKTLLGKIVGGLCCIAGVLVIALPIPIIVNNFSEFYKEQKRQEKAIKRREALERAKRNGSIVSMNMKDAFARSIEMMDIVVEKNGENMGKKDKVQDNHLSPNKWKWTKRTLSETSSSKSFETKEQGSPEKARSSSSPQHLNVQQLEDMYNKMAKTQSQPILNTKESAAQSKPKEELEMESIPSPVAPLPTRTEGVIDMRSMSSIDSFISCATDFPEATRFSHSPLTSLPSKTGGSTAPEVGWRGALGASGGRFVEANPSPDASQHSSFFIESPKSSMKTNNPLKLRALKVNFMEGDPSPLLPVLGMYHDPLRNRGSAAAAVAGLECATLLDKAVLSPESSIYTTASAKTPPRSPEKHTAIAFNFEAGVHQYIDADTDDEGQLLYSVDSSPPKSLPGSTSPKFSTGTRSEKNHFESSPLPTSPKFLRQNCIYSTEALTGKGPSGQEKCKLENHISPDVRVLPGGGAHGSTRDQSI
Description: (§1) Having executed our plan to prepare analogs across the identified regions of the chemotype (Figure 2), we identified two analogs for further profiling and evaluation. […] Desiring to add a second compound with some measure of structural differences, we also chose another submicromolar SLACK inhibitor 66 (VU0936154). Whereas 40 contains an ether linker and a halogenated phenyl group in the eastern region, […] contains an N-methyl linker and a phenyl group with a more polar cyano substituent. We first screened these analogs at 10 µM versus our in-house panel of ion channel targets using Tl^+-flux assays in HEK-293 cells expressing the human target of interest. […] Included in this set are Slo family members SLICK and two isoforms of Maxi-K, as well as several different K^+, Na^+, and Ca^2+ channels (Table 6). […] Of note was the excellent selectivity versus the broader panel of targets for both compounds, including versus the hERG channel.
(§2) Stably transfected monoclonal HEK293 cell lines expressing SLICK, Maxi-K α1/β3, Maxi-K α1/β4, CaV3.2, GIRK 1/2, KV2.1, KV7.2, NaV1.7, and TASK-1 were generated as previously described. […]
(§3) The Tl^+ flux assays were conducted as previously described, with modifications optimized for individual cell lines as described below. […] Cell plates were then loaded onto a Panoptic kinetic imaging plate reader (WaveFront Biosciences, Franklin, TN, USA). […]

Maxi-K α1/β4 = target: T2, Maxi-K α1/β4 (Homo sapiens, UniProt Q12791); assay: Tl+-flux assay in HEK-293 cells, Maxi-K α1/β4; details: HEK293; 10 µM test compound; relative to control paxilline; read-out: Percent Inhibition ± SEM, Maxi-K α1/β4
T2 construct: expressed in transfected cells; host or cells: HEK293
T2 sequence (Q12791 whole entry): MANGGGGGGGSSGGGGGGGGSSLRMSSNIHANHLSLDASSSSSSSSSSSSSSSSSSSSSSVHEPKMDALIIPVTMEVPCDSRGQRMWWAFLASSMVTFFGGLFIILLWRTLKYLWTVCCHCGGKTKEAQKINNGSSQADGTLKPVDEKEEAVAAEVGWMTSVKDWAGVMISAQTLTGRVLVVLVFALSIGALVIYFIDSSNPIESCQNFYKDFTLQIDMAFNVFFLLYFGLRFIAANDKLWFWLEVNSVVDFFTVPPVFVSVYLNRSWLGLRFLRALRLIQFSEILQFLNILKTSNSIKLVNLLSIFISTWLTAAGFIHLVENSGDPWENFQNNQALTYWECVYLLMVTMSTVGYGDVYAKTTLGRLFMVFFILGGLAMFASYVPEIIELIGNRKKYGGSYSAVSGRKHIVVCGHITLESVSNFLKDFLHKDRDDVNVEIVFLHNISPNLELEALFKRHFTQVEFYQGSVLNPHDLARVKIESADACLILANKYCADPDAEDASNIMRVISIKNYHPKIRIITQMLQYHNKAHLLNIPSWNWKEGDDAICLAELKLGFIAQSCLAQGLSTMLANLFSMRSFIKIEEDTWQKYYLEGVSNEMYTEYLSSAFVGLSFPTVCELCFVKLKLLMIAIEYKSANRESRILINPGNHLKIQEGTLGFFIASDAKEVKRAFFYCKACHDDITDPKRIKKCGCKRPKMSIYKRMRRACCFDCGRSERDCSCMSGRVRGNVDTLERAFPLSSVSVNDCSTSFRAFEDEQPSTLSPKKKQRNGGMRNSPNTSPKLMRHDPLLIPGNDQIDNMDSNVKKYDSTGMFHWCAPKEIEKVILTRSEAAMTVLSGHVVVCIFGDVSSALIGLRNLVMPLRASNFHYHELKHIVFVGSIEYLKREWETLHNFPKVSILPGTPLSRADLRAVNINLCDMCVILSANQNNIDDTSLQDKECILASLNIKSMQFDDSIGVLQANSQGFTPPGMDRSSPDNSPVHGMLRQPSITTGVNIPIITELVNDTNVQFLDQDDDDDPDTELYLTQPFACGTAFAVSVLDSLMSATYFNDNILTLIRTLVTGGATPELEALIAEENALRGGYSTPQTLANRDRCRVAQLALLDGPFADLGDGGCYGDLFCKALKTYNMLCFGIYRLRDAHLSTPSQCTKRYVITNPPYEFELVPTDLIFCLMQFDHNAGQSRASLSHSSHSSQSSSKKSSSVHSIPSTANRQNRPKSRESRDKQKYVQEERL
T2 sequence (Q86W47 whole entry partner): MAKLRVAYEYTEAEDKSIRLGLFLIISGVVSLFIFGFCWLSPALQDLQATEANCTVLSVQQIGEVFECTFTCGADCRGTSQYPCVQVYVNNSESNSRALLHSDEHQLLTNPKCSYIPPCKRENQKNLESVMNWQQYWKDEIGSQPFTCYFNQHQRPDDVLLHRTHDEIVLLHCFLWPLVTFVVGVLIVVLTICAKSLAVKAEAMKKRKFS
Description: as §1, §2, §3

Maxi-K α1/β3 = target: T3, Maxi-K α1/β3 (Homo sapiens, UniProt Q12791); assay: Tl+-flux assay in HEK-293 cells, Maxi-K α1/β3; details: HEK293; 10 µM test compound; relative to control paxilline; read-out: Percent Inhibition ± SEM, Maxi-K α1/β3
T3 construct: expressed in transfected cells; host or cells: HEK293
T3 sequence (Q12791 whole entry): as the sequence (Q12791 whole entry) above
T3 sequence (Q9NPA1 whole entry partner): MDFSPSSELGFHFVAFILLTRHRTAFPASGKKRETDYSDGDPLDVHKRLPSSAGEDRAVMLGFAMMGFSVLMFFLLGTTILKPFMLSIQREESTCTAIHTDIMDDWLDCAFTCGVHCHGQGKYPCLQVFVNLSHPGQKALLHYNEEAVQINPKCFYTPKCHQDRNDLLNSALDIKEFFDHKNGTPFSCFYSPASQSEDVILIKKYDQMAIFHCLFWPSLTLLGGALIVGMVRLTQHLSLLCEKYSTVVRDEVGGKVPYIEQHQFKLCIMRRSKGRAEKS
Description: as §1, §2, §3

KV7.2 = target: T4, KV7.2 (Homo sapiens, UniProt O43526); assay: Tl+-flux assay in HEK-293 cells, KV7.2; details: HEK293; 10 µM test compound; relative to control XE991; read-out: Percent Inhibition ± SEM, KV7.2
T4 construct: expressed in transfected cells; host or cells: HEK293
Description: as §1, §2, §3

SMILES	inhibition at 10 µM (KV2.1) [%]	inhibition at 10 µM (Maxi-K α1/β4) [%]	inhibition at 10 µM (Maxi-K α1/β3) [%]	inhibition at 10 µM (KV7.2) [%]
CN(c1ccc(C#N)cc1)c1ncc(NC(=O)C(C)(C)Oc2ccc(Cl)cc2)cn1 [Analog 66]	10 ± 1.6	22 ± 2.5	30 ± 2.6	1.6 ± 0.94
CC(C)(Oc1ccc(Cl)cc1)C(=O)Nc1cnc(Oc2c(F)cccc2F)nc1 [Analog 40]	13 ± 5	10 ± 7.4	27 ± 11	1.3 ± 1
